Test results: patent US10905683B2, “Compositions and uses of amidine derivatives” (BIOCRYST PHARMACEUTICALS, INC., priority 2014, dated 2021)

Experiments:
plasma kallikrein = target: T1, plasma kallikrein (Homo sapiens, UniProt P03952); experiment: Plasma kallikrein activity in subject samples, contact activation assay with fluorogenic substrate; type: in vivo
T1 construct: normal levels of C1INH present in healthy subject plasma samples; from tissue; host or cells: plasma samples of healthy human subjects
T1 sequence (P03952 391-638 limits assumed): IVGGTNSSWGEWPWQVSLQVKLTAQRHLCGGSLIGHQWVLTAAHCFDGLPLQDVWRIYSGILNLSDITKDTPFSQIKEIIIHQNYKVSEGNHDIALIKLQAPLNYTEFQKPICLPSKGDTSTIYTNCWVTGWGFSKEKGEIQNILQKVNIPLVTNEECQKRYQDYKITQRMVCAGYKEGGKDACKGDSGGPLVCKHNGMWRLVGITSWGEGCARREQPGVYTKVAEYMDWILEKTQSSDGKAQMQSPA
T1 sequence (P03952 20-390 partner limits assumed): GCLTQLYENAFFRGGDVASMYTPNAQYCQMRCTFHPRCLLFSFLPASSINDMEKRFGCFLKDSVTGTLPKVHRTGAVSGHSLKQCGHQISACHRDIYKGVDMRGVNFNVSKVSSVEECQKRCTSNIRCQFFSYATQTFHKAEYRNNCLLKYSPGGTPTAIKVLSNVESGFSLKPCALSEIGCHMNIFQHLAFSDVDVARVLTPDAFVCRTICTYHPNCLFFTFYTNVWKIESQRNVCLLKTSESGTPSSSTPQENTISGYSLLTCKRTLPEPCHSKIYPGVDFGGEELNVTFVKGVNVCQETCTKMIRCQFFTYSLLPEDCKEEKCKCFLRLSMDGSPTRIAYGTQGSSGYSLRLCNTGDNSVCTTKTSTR
Procedure: Plasma kallikrein activity was assessed in subject samples with an exploratory contact activation assay using a fluorogenic artificial substrate for kallikrein. In this assay, the contact pathway is activated by addition of ellagic acid, and amidolytic activity is measured. Results are expressed as percent inhibition compared to subject baseline samples and reflect inhibition additional to that resulting from the activity of normal levels of C1INH present in healthy subject plasma samples. Analysis of plasma kallikrein activity following single doses of the compound of Example 1 was performed through 12 hours postdose. […] The time course of inhibition generally followed the plasma pharmacokinetics of the compound. The greatest effect was seen around the time of Cmax. Plasma kallikrein inhibition largely returned to baseline at 12 hours postdose, when plasma concentrations of the compound of Example 1 were low (generally <10 ng/mL).
Plasma kallikrein activity profiles were measured in Part 2 subjects on day 7 of dosing and the results were expressed as percent inhibition compared to the activity present in the Day 1 predose plasma sample. […] Kallikrein inhibition was observed through the last dosing interval on day 7 compared to placebo (p<0.0001).

[1] = Relative bioavailability crossover study, soft v. hard gelatin capsules and food effect; type: in vivo, human
Procedure: A single dose, randomized, 3-period crossover study was conducted to evaluate the relative bioavailability of the compound of Example 1 formulated as a soft gelatin capsule to the compound of Example 1 formulated as a hard gelatin capsule and to determine the effect of food on the pharmacokinetics of the compound of Example 1. The goals of this study were to ascertain the relative bioavailability and pharmacokinetics of the compound of Example 1 in soft gelatin capsules to hard gelatin capsules when administered following an overnight fast in healthy subjects. In addition, the study estimated the effect of a high-fat meal upon the pharmacokinetics of the compound of Example 1 following single dose administration of 400 mg of the compound of Example 1 in a soft gelatin capsules to healthy subjects. Hard and soft gelatin capsules were prepared as in Example 8 and 9, respectively, below.
The study was a single-dose, open-label, randomized, 3-way cross-over design. During each treatment period, eighteen subjects will receive a single dose of one of the following treatments in a randomized sequence:
Treatment A: BCX4161 400 mg as 4×100 mg hard gelatin capsules following an overnight fast
Treatment B: BCX4161 400 mg as 4×100 mg soft gelatin capsules following an overnight fast
Treatment C: BCX4161 400 mg as 4×100 mg soft gelatin capsules following a high fat meal […]

## C=Cc1cc(C(=O)Nc2ccc(C(=N)N)cc2)c(-c2ccc(C(=O)NCC3CC3)nc2C(=O)O)cc1OC [Example 1, 3-[2-(4-carbamimidoyl-phenylcarbamoyl)-5-methoxy-4-vinyl-phenyl]-6-(cyclopropylmethyl-carbamoyl)-pyridine-2-carboxylic acid]
Plasma kallikrein; beginning and end of the dosing interval on Day 7, two highest dose cohorts (400, 800 mg q8h), FIG. 11
  Kallikrein inhibition compared to Day 1 predose: 30-40%
Plasma kallikrein; single doses of 50-250 mg
  change of plasma kallikrein activity in comparison to placebo: modest but real changes
[1]; 400 mg single dose, fasting
  geometric mean Cmax, soft gelatin capsules as compared to hard gelatin capsules: approximately 80%
[1]; formulated in a soft gelatin capsule
  bioavailability: good bioavailability
